Data from PubChem BioAssay (NCI).
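Exposure lasted 48 hours, with cells grown in 96-well plates and compounds tested at five concentrations. Here, GI50 denotes the concentration required for 50% inhibition of growth. TGI denotes the concentration required for complete inhibition of growth.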

Tests used:
Assay in all cases: growth of human tumour cells (NCI), 48 h
MOLT-4 leukemia = system: MOLT-4 leukemia
SK-MEL-2 melanoma = system: SK-MEL-2 melanoma
OVCAR-5 ovarian = system: OVCAR-5 ovarian
SF-268 CNS = system: SF-268 CNS
MCF7 breast = system: MCF7 breast
786-0 renal = system: 786-0 renal
BT-549 breast = system: BT-549 breast
SK-OV-3 ovarian = system: SK-OV-3 ovarian
HS 578T breast = system: HS 578T breast
HCC-2998 colon = system: HCC-2998 colon
SF-295 CNS = system: SF-295 CNS
HT29 colon = system: HT29 colon
UACC-257 melanoma = system: UACC-257 melanoma
SK-MEL-5 melanoma = system: SK-MEL-5 melanoma
HOP-62 NSCLC = system: HOP-62 NSCLC
OVCAR-4 ovarian = system: OVCAR-4 ovarian
SNB-75 CNS = system: SNB-75 CNS
M14 melanoma = system: M14 melanoma
ACHN renal = system: ACHN renal
CAKI-1 renal = system: CAKI-1 renal
SW-620 colon = system: SW-620 colon
NCI-H460 lung = system: NCI-H460 lung
PC-3 prostate = system: PC-3 prostate
A549 NSCLC = system: A549 NSCLC
MDA-MB-435 = system: MDA-MB-435
SK-MEL-28 melanoma = system: SK-MEL-28 melanoma
HCT-15 colon = system: HCT-15 colon
OVCAR-3 ovarian = system: OVCAR-3 ovarian

In the case of COc1ccc(C(=O)Cn2c(C(=O)c3ccccc3)nc(-c3ccc(OC)cc3)c2-c2ccc(OC)cc2)cc1, the GI50 (MOLT-4 leukemia) is reported as > 100 µM, the TGI (MOLT-4 leukemia) is reported as > 100 µM and the GI50 (SK-MEL-2 melanoma) is reported as 66 µM. The TGI (SK-MEL-2 melanoma) was > 100 µM, the GI50 (OVCAR-5 ovarian) was > 100 µM and the TGI (OVCAR-5 ovarian) was > 100 µM. For the same compound, the GI50 (SF-268 CNS) was 86.4 µM, the TGI (SF-268 CNS) was > 100 µM and the GI50 (MCF7 breast) was > 100 µM. For the same compound, the TGI (MCF7 breast) was > 100 µM, the GI50 (786-0 renal) was 46.1 µM and the TGI (786-0 renal) was > 100 µM. For the same compound, the GI50 (BT-549 breast) was > 100 µM, the TGI (BT-549 breast) was > 100 µM and the GI50 (SK-OV-3 ovarian) was 97.8 µM. For the same compound, the TGI (SK-OV-3 ovarian) was > 100 µM, the GI50 (HS 578T breast) was 45.6 µM and the TGI (HS 578T breast) was > 100 µM. For the same compound, the GI50 (HCC-2998 colon) was > 100 µM, the TGI (HCC-2998 colon) was > 100 µM and the GI50 (SF-295 CNS) was 42.5 µM. The TGI (SF-295 CNS) was > 100 µM, the GI50 (HT29 colon) was > 100 µM and the TGI (HT29 colon) was > 100 µM. For the same compound, the GI50 (UACC-257 melanoma) was > 100 µM, the TGI (UACC-257 melanoma) was > 100 µM and the GI50 (SK-MEL-5 melanoma) was > 100 µM. For the same compound, the TGI (SK-MEL-5 melanoma) was > 100 µM, the GI50 (HOP-62 NSCLC) was 74 µM and the TGI (HOP-62 NSCLC) was > 100 µM. The GI50 (OVCAR-4 ovarian) was > 100 µM, the TGI (OVCAR-4 ovarian) was > 100 µM and the GI50 (SNB-75 CNS) was 7.71 µM. For the same compound, the TGI (SNB-75 CNS) was 38.4 µM, the GI50 (M14 melanoma) was > 100 µM and the TGI (M14 melanoma) was > 100 µM. For the same compound, the GI50 (ACHN renal) was > 100 µM, the TGI (ACHN renal) was > 100 µM and the GI50 (CAKI-1 renal) was 52.7 µM. For the same compound, the TGI (CAKI-1 renal) was > 100 µM, the GI50 (SW-620 colon) was > 100 µM and the TGI (SW-620 colon) was > 100 µM. For the same compound, the GI50 (NCI-H460 lung) was > 100 µM, the TGI (NCI-H460 lung) was > 100 µM and the GI50 (PC-3 prostate) was > 100 µM. The TGI (PC-3 prostate) was > 100 µM, the GI50 (A549 NSCLC) was > 100 µM and the TGI (A549 NSCLC) was > 100 µM. For the same compound, the GI50 (MDA-MB-435) was > 100 µM, the TGI (MDA-MB-435) was > 100 µM and the GI50 (SK-MEL-28 melanoma) was > 100 µM. For the same compound, the TGI (SK-MEL-28 melanoma) was > 100 µM, the GI50 (HCT-15 colon) was > 100 µM and the TGI (HCT-15 colon) was > 100 µM. The GI50 (OVCAR-3 ovarian) was > 100 µM and the TGI (OVCAR-3 ovarian) was > 100 µM.
